Laboratory results from ChEMBL document CHEMBL4339236, “Colletopeptides A-D, Anti-inflammatory Cyclic Tridepsipeptides from the Plant Endophytic Fungus Colletotrichum sp. S8” (J Nat Prod, 2019).
Active and inactive are the calls of the source. The rule behind the calls is not given here.

Tests used:
HeLa = experiment: Cytotoxicity against human HeLa cells measured after 48 hrs by MTS assay; format: cell-based
HCT-116 = experiment: Cytotoxicity against human HCT116 cells measured after 48 hrs by MTS assay; format: cell-based; conditions: hct-116, 48 h
RAW264.7 [1] = experiment: Antiinflammatory activity in mouse RAW264.7 cells assessed as inhibition of LPS-induced IL-6 production preincubated for 12 hrs followed by LPS-stimulation and measured after 24 hrs by ELISA; format: functional, cell-based
HepG2 [2] = experiment: Cytotoxicity against human HepG2 cells measured after 48 hrs by MTS assay; format: cell-based; conditions: hepg2, 48 h
MDA-MB-231 = experiment: Cytotoxicity against human MDA-MB-231 cells measured after 48 hrs by MTS assay; format: cell-based; conditions: mda-mb-231, 48 h
[3] = biological target: Transcription factor p65 (Mus musculus) (UniProt Q04207); experiment: Inhibition of NFkappaB p65 phosphorylation in LPS-stimulated mouse RAW264.7 cells at 20 to 40 uM preincubated for 12 hrs followed by LPS stimulation and measured after 24 hrs by Western blot analysis; format: cell-based
Sequence of Transcription factor p65 (Mus musculus) (Q04207 whole entry): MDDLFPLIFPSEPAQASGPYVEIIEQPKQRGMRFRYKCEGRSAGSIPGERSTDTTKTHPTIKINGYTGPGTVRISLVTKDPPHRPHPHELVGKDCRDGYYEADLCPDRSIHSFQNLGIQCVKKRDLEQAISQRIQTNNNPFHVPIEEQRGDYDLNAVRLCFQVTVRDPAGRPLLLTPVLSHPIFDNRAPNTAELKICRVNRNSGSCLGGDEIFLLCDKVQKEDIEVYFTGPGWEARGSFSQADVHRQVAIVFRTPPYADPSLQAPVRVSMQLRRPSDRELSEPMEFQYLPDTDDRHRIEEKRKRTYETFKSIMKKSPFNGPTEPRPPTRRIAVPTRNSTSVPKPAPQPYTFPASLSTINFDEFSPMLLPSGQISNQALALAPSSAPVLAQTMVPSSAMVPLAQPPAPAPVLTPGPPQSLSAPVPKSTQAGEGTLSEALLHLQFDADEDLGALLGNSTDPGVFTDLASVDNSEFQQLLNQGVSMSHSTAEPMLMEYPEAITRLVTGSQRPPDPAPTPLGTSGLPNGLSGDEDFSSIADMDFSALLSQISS

A549 = experiment: Cytotoxicity against human A549 cells measured after 48 hrs by MTS assay; format: cell-based; conditions: a549, 48 h
HepG2 [4] = experiment: Lipid lowering activity in human HepG2 cells assessed as reduction in oleic acid-induced lipid accumulation after 24 hrs by oil red O staining based spectrophotometric method; format: functional, cell-based
Bacillus subtilis = experiment: Antibacterial activity against Bacillus subtilis measured after 24 hrs by broth microdilution assay; format: functional, organism-based
RAW264.7 [5] = experiment: Antiinflammatory activity in mouse RAW264.7 cells assessed as inhibition of LPS-induced nitric oxide production preincubated for 12 hrs followed by LPS-stimulation and measured after 24 hrs by Griess assay; format: functional, cell-based
[6] = biological target: Histone deacetylase (Homo sapiens) (UniProt Q13547+O15379+Q9UBN7+Q92769+Q9UQL6+Q8WUI4+Q9BY41+Q96DB2+P56524+Q9UKV0+Q969S8); experiment: Inhibition of HDAC in human HeLa nuclear extracts using Boc-Lys(Ac)-AMC as substrate by fluorescence assay; format: cell-free
RAW264.7 [7] = experiment: Antiinflammatory activity in mouse RAW264.7 cells assessed as inhibition of LPS-induced TNFalpha production preincubated for 12 hrs followed by LPS-stimulation and measured after 24 hrs by ELISA; format: functional, cell-based
Aeromonas hydrophila = experiment: Antibacterial activity against Aeromonas hydrophila measured after 24 hrs by broth microdilution assay; format: functional, organism-based
[8] = biological target: T1, NF-kappa-B inhibitor alpha (Mus musculus) (UniProt Q9Z1E3); experiment: Inhibition of IkappaBalpha phosphorylation in LPS-stimulated mouse RAW264.7 cells at 20 to 40 uM preincubated for 12 hrs followed by LPS stimulation and measured after 24 hrs by Western blot analysis; format: cell-based
T1 sequence (whole entry): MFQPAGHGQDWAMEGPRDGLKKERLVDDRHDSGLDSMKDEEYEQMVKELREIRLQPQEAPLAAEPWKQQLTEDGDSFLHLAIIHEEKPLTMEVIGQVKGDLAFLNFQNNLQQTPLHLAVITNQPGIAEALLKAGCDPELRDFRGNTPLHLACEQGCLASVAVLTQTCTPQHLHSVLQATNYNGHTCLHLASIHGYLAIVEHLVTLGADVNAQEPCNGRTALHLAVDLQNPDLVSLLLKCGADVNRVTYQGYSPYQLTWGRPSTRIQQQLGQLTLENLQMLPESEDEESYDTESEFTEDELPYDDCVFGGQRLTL

Staphylococcus aureus = experiment: Antibacterial activity against Staphylococcus aureus measured after 24 hrs by broth microdilution assay; format: functional, organism-based
Escherichia coli = experiment: Antibacterial activity against Colon bacillus measured after 24 hrs by broth microdilution assay; format: functional, organism-based

SMILES	Activity (HeLa)	Activity (HCT-116)	inhibition (RAW264.7 [1])	Activity (HepG2 [2])	Activity (MDA-MB-231)	inhibition [3]	Activity (A549)	Activity (HepG2 [4])	Activity (Bacillus subtilis)	IC50 (RAW264.7 [5]) [µM]	inhibition [6]	inhibition (RAW264.7 [7])	Activity (Aeromonas hydrophila)	inhibition [8]	Activity (Staphylococcus aureus)	Activity (Escherichia coli)
CC[C@H](C)[C@H]1C(=O)O[C@H]([C@@H](C)CCCC[C@@H](C)O)C[C@@H](O)[C@@H](C)C(=O)N[C@H](Cc2ccccc2)C(=O)N1C	Non-Toxic	Non-Toxic	Dose-dependent effect	Non-Toxic	Non-Toxic	Active	Non-Toxic	Active	inactive	8.3	inactive	Dose-dependent effect	inactive	Active	inactive	inactive
CC(C)C[C@H]1C(=O)O[C@H]([C@@H](C)CCCC[C@@H](C)O)C[C@@H](O)[C@@H](C)C(=O)N[C@H](Cc2ccccc2)C(=O)N1C	Non-Toxic	Non-Toxic	–	Non-Toxic	Non-Toxic	–	Non-Toxic	Active	inactive	38.7	inactive	–	inactive	–	inactive	inactive
CC(C)[C@H]1C(=O)O[C@H]([C@@H](C)CCCC[C@@H](C)O)C[C@@H](O)[C@@H](C)C(=O)N[C@H](Cc2ccccc2)C(=O)N1C	Non-Toxic	Non-Toxic	–	Non-Toxic	Non-Toxic	Active	Non-Toxic	Active	inactive	13.5	inactive	–	inactive	Active	inactive	inactive
CC[C@H](C)[C@H]1C(=O)O[C@@H](CCCCC[C@@H](C)O)C[C@@H](O)[C@@H](C)C(=O)N[C@H](Cc2ccccc2)C(=O)N1C	Non-Toxic	Non-Toxic	–	Non-Toxic	Non-Toxic	–	Non-Toxic	Active	inactive	22.2	inactive	–	inactive	–	inactive	inactive
C[C@@H]1C[C@H]2[C@@H]3CCC4=CC(=O)C=C[C@]4(C)[C@@]3(F)[C@@H](O)C[C@]2(C)[C@@]1(O)C(=O)CO [DEXAMETHASONE]	–	–	–	–	–	–	–	–	–	18.4	–	–	–	–	–	–
